According to publication PMC5925453 (EBioMedicine, 2018):

What was measured:
Assay type in all cases: cell-based
[1] = system: H1975 (Leu858Arg and Thr790Met) cells; test: cells; conditions: for IC50: Homo sapiens, NCI-H1975, 72 h
[2] = system: HCC827 (exon 19 deletion) cells; test: Cell viability assay; conditions: Homo sapiens, HCC827, 72 h
[3] = system: PC9 (exon 19 deletion) cells; test: Cell viability assay; conditions: for IC50: Homo sapiens, PC-9, 72 h
[4] = system: HCC4006 (exon 19 deletion) cells; test: Cell viability assay; conditions: Homo sapiens, HCC4006, 72 h
[5] = system: EGFR downstream signal transduction pathways and RTKs; test: Western blotting, osimertinib with TPX-0005, PC9, 11–18 and H1975 cell lines; conditions: TPX-0005 1 μM, 24 h
11–18 (Leu858Arg) cells = test: cells; conditions: 72 h
[6] = system: STAT3 and FAK phosphorylation; test: Western blotting, dasatinib or TPX-0005, PC9 and H1975 cell lines; conditions: dasatinib 50 and 100 μM respectively, 24 h
[7] = system: phospho-STAT3 in PC9 cells; test: Immunofluorescence and imaging flow cytometry of STAT3 / phospho-STAT3; conditions: 24 h
[8] = system: mRNA expression of RTK and non-RTK genes; test: Quantitative RT-PCR after treatment, PC9 and H1975 cells; conditions: TPX-0005 1 μM alone or combined with an EGFR TKI, five days
[9] = osimertinib 0.05, 0.8 and 0.02 μM respectively

IC50 [1] [nM]	IC50 [2] [nM]	IC50 [3] [nM]	IC50 [4] [nM]	IC50 (11–18 (Leu858Arg) cells) [nM]	SMILES	Src and FAK phosphorylation [5, 9]	STAT3 and FAK phosphorylation [6]	interaction of TPX-0005 with osimertinib (cell viability, colony formation) [1]	STAT3 activation state by intracellular localization (immunofluorescence) [7]	interaction of TPX-0005 with gefitinib (cell viability, colony formation) ([3]; PC9 cells)	AXL total protein expression [5]	CDCP1 phosphorylation [5, 9]	mRNA expression of most of the transcripts explored [8]
20	10	20	10	–	C=CC(=O)Nc1cc(Nc2nccc(-c3cn(C)c4ccccc34)n2)c(OC)cc1N(C)CCN(C)C [Osimertinib]	induced	–	–	–	–	–	–	–
–	< 10	< 10	< 10	10	COc1cc2ncnc(Nc3ccc(F)c(Cl)c3)c2cc1NC(=O)/C=C/CN1CCCCC1 [Dacomitinib]	–	–	–	–	–	–	–	–
–	–	–	–	–	Cc1nc(Nc2ncc(C(=O)Nc3c(C)cccc3Cl)s2)cc(N2CCN(CCO)CC2)n1 [Dasatinib]	–	induced	–	–	–	–	–	–
1000	–	1000	1480	–	C[C@H]1CNC(=O)c2cnn3ccc(nc23)N[C@H](C)c2cc(F)ccc2O1 [TPX-0005]	abrogated	–	synergistic	did not occur	synergistic	minor effect	diminished	abolished or attenuated
